From patent publication US4875922A, “Pyrimidine derivatives” (Imperial Chemical Industries PLC, priority 1986, dated 1989) come the findings set out here.

The subject of assay [1] is Barley. Briefly: Whole plant screen for plant growth regulator activity, barley (BR). It is filed as in vivo, Barley (Atem). The conditions noted are these: BR, 4000 ppm (4 kg/ha), visual score after 2-6 weeks; for T = Tillering or side shooting: * = decrease in tillering. The method in brief:
(§1)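 Plants were sprayed with compound at 4000 ppm (4 kg/ha in a 1000 l/ha field volume) by tracksprayer and kept in a glasshouse under a 16 h photoperiod: maize and rice at 25° C. day/22° C. night, wheat and barley at 16° C. day/13° C. night. Morphology was scored visually after 2-6 weeks against formulation blanks.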

In assay [2] the test system is Tomato. Briefly: Whole plant screen for plant growth regulator activity, tomato (TO). It is filed as in vivo, Tomato (Ailsa Craig). The conditions noted are these: 4000 ppm (4 kg/ha), visual score after 2-6 weeks. The method in brief:
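Tomato (Ailsa Craig), one plant per 3-inch peat pot, sprayed at 2–2½ leaves with 4000 ppm (4 kg/ha in 1000 l/ha) by track sprayer. Glasshouse 25 °C day/22 °C night, 16 h photoperiod; morphology visually scored after 2–6 weeks against formulation blanks.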

In assay [3] the test system is Spring Barley. Briefly: Intermediate Retardant Test, spring barley. The note with it: Hordeum vulgare, 672 h, overall spray, approximately 28 days, Table VII, read-out: Percentage Reduction in Height of Spring Barley (Compared to formulation blank). Type of assay: in vivo, Spring Barley (Atem/kym). From the text:
(§2) Three species are involved in this test RICE, SPRING-BARLEY and APPLES. The variety and growth stages at spray are outlined in Table V. Compounds were applied at 500 ppm and 2000 ppm respectively (0.5 kg and 2 kg/ha^-1 at a field volume of 1000 l/ha^-1) as an overall spray except in the case of certain tests on APPLES. This gives a foliar and root component in the test, i.e., this test will detect the activity of both root and foliar acting compounds. The intermediate retardant test on APPLES of which the results are given in Table IX was different, in that a foliar (only) spray at 2000 ppm was compared with a root drench, also at 2000 ppm. The rice was grown in 4" `paddy` pots, i.e., the roots and bottom of the stems are immersed in water under conditions corresponding to those in paddy fields. Spring barley and apples were grown in 4" pots. The plants were assessed for height to top-most ligule at approximately 28 days after treatment for spring barley and rice and for height to apex at approximately 28 days after the treatment for apples. In each case the result for the 500 ppm and 2000 ppm test for each compound is compared to the height of the formulation blank in that test, presented as a percentage reduction in height compared to the formulation blank.
(§3) The prior art compound was compared with compounds of the present invention in side-by-side comparisons using the Intermediate Retardant Test described in Example 62, and the results are given in Tables X to XII where `A` is the prior art compound, 2-methyl-1-isopropyl-1-(pyrimidin-5-yl)-propan-1-ol).

The test system of assay [4] is Apples. Briefly: Intermediate Retardant Test, apples, foliar spray compared with root drench. It is filed as in vivo, Apples (Red Delicious). The conditions noted are these: 672 h, approximately 28 days, Table IX, read-out: Percentage Reduction in Height of Apples (Compared to formulation blank); for percent reduction in plant height at 2000 ppm: 2000 ppm (Foliar); for percent reduction in plant height at 2000 µg/mL: soil, 2000 pmm (Root), root drench.
Description: as §2, §3

Assay [5] relates to Rice. Briefly: Whole plant screen for plant growth regulator activity, rice (RC). It is filed as in vivo, Rice (Ishikari). The note with it: 4000 ppm (4 kg/ha), visual score after 2-6 weeks. The method in brief:
as §1

The test system of assay [6] is Rice. Briefly: Intermediate Retardant Test, rice. Type of assay: in vivo, Rice (Ishikari). The note with it: Oryza sativa, 672 h, overall spray, approximately 28 days, Table VI, read-out: Percentage Reduction in Height of Rice (Compared to formulation blank).
Description: as §2, §3

Assay [7] deals with Wheat. Briefly: Whole plant screen for plant growth regulator activity, wheat (WW). Type of assay: in vivo, Wheat (Timmo). The conditions noted are these: WW, 4000 ppm (4 kg/ha), visual score after 2-6 weeks; for T = Tillering or side shooting: * = decrease in tillering. The method in brief:
as §1

For assay [8], the system named is Apple. Briefly: Whole plant screen for plant growth regulator activity, apple (AP). It is filed as in vivo, Apple (Red Delicious). The note with it: 4000 ppm (4 kg/ha), visual score after 2-6 weeks. The method, boiled down: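 Growth-regulator effects were judged by eye on glasshouse plants 2-6 weeks post-spray (timing varying with season), using formulation blanks for comparison. Application rate was 4000 ppm, equivalent to 4 kg/ha in 1000 l/ha.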

As for `CC(C)CCCC(O)(c1cncnc1)C(C)(C)C` (stereo not drawn) [Compound 17, 2,2-Dimethyl-1-(4-methylpentyl)-1-(pyrimidin-5-yl)-propan-1-ol], in assay [1], the “G = Greening effect” value is recorded as 2 (31-60%), the “I = Interligular or internodal length reduction” value is given as 3 (61-100%), the “R = Retardation” value is 2 (31-60%) and the “T = Tillering or side shooting” value is 2 (31-60%). Further, in assay [2], the “G = Greening effect” value is recorded as 1 (10-30%), the “I = Interligular or internodal length reduction” value is 1 (10-30%) and the “R = Retardation” value was 1 (10-30%). In addition, in assay [3], the percent reduction in plant height at 500 ppm came out at 2% and the percent reduction in plant height at 2000 ppm came out at 28%. Also, in assay [4], the percent reduction in plant height at 2000 ppm came to 17% and the percent reduction in plant height at 2000 µg/mL was determined as 66%. For the same compound, in assay [5], the “G = Greening effect” value is on record as 1 (10-30%), the “I = Interligular or internodal length reduction” value was 2 (31-60%) and the “R = Retardation” value was 2 (31-60%). The “T = Tillering or side shooting” value in assay [5] (* = decrease in tillering) is on record as 1 (10-30%). In assay [6], the Percent reduction in rice height vs formulation blank at 500 ppm amounted to 7% and the Percent reduction in rice height vs formulation blank at 2000 ppm came out at 10%. Moreover, in assay [7], the “G = Greening effect” value is reported as 2 (31-60%), the “I = Interligular or internodal length reduction” value was 3 (61-100%), the “R = Retardation” value is reported as 2 (31-60%) and the “T = Tillering or side shooting” value was 2 (31-60%). In assay [8], the “G = Greening effect” value is 1 (10-30%), the “I = Interligular or internodal length reduction” value is listed as 3 (61-100%) and the “R = Retardation” value is reported as 3 (61-100%).
For the compound `CC(C)C#CC(O)(c1cncnc1)C(C)(C)C` (stereo not drawn) [Compound 18, 2,2-Dimethyl-1-(3-methylbut-1-yne)-1-(pyrimdin-5-yl)-propan-1-ol], in assay [1], the “G = Greening effect” value is 2 (31-60%), the “I = Interligular or internodal length reduction” value is 3 (61-100%), the “R = Retardation” value is 2 (31-60%) and the “T = Tillering or side shooting” value is given as 3 (61-100%). Moreover, in assay [2], the “I = Interligular or internodal length reduction” value is 3 (61-100%) and the “R = Retardation” value is given as 3 (61-100%). In addition, in assay [3], the percent reduction in plant height at 500 ppm came out at 17% and the percent reduction in plant height at 2000 ppm came out at 55%. Also, in assay [4], the percent reduction in plant height at 2000 ppm was determined as 0% and the percent reduction in plant height at 2000 µg/mL came out at 69%. In assay [5], the “G = Greening effect” value was 1 (10-30%), the “I = Interligular or internodal length reduction” value is on record as 3 (61-100%) and the “R = Retardation” value is recorded as 3 (61-100%). In addition, in assay [6], the Percent reduction in rice height vs formulation blank at 500 ppm is 13% and the Percent reduction in rice height vs formulation blank at 2000 ppm amounted to 15%. Besides, in assay [7], the “I = Interligular or internodal length reduction” value was 3 (61-100%), the “R = Retardation” value is recorded as 2 (31-60%) and the “T = Tillering or side shooting” value is 2 (31-60%). In addition, in assay [8], the “G = Greening effect” value is 2 (31-60%), the “I = Interligular or internodal length reduction” value is given as 3 (61-100%) and the “R = Retardation” value was 3 (61-100%).
